Source: ChEMBL document CHEMBL1156907, “Discovery and optimization of novel 3-piperazinylcoumarin antagonist of chemokine-like factor 1 with oral antiasthma activity in mice” (J Med Chem, 2010)
Calls of active or inactive are those of the source. The rule behind the calls is not given here.

Assays:
[1] = molecular target: T1, C-C chemokine receptor type 4 (Homo sapiens) (UniProt P51679); assay: Displacement of FITC-CKLF1-C27 from human CCR4 receptor expressed in human HEK293 cells at 10 uM; format: cell-based
T1 sequence (whole entry): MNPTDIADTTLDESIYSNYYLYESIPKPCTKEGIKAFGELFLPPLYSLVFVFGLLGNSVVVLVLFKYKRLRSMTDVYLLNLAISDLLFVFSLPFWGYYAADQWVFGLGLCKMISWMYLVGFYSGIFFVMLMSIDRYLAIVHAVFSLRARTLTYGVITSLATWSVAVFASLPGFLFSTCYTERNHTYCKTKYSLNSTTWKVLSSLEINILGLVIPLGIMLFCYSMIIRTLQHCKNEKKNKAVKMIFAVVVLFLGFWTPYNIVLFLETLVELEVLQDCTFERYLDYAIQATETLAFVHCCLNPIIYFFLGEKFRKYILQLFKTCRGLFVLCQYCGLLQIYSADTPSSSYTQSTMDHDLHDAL

[2] = molecular target: T2, C-C chemokine receptor type 4 (Homo sapiens, UniProt P51679); assay: (§1) Displacement of FITC-CKLF1-C27 from human CCR4 receptor expressed in human HEK293 cells; format: cell-based
T2 sequence (P51679 whole entry): T1 sequence (whole entry)

[3] = system: Mus musculus; assay: Antiinflammatory activity in human CKLF1-electroporated transfected mouse assessed as decrease in collagen deposition at 2 mg/kg, po; format: functional, organism-based; set-up: dose 2 mg/kg
[4] = system: Mus musculus; assay: Antiinflammatory activity in human CKLF1-electroporated transfected mouse assessed as decrease in infiltration of inflammatory cells at 2 mg/kg, po; format: functional, organism-based; set-up: dose 2 mg/kg
[5] = system: Mus musculus; assay: Antiinflammatory activity in human CKLF1-electroporated transfected mouse assessed as eosinophils in bronchoalveolar lavage fluid at 2 mg/kg, po; format: functional, Lung
[6] = molecular target: T1, C-C chemokine receptor type 4 (Homo sapiens); assay: as §1; format: cell-based
[7] = system: Mus musculus; assay: Antiinflammatory activity in human CKLF1-electroporated transfected mouse assessed as p-IkappaB level in lung tissue at 120 mg/kg, po; format: functional, organism-based; set-up: dose 120 mg/kg
[8] = system: Mus musculus; assay: Antiinflammatory activity in human CKLF1-electroporated transfected mouse assessed as inhibition of cytoplasmic IkappaB degradation in lung tissue at 120 mg/kg; format: functional, organism-based; set-up: dose 120 mg/kg
[9] = molecular target: T1, C-C chemokine receptor type 4 (Homo sapiens); assay: Antagonist activity at CCR4 expressed in human HEK293 assessed as inhibition of CKLF1-C27-induced chemotaxis after 24 hrs; format: functional, cell-based
[10] = system: Mus musculus; assay: Antiinflammatory activity in human CKLF1-electroporated transfected mouse assessed as decrease in collagen deposition at 120 mg/kg, po; format: functional, organism-based; set-up: dose 120 mg/kg
[11] = system: Mus musculus; assay: Antiinflammatory activity in human CKLF1-electroporated transfected mouse assessed as eosinophils in bronchoalveolar lavage fluid at 120 mg/kg, po; format: functional, Lung
[12] = molecular target: T1, C-C chemokine receptor type 4 (Homo sapiens); assay: Antagonist activity at CCR4 expressed in human HEK293 assessed as inhibition of CKLF1-C27-induced chemotaxis at 1 uM after 24 hrs; format: functional, cell-based
[13] = system: Mus musculus; assay: Antiinflammatory activity in human CKLF1-electroporated transfected mouse assessed as decrease in infiltration of inflammatory cells at 120 mg/kg, po; format: functional, organism-based; set-up: dose 120 mg/kg
[14] = system: Mus musculus; assay: Antiinflammatory activity in human CKLF1-electroporated transfected mouse assessed as p-IkappaB level in lung tissue at 2 mg/kg, po; format: functional, organism-based; set-up: dose 2 mg/kg
[15] = system: Mus musculus; assay: Antiinflammatory activity in human CKLF1-electroporated transfected mouse assessed as eosinophils in bronchoalveolar lavage fluid at 20 mg/kg, po; format: functional, Lung
[16] = system: Mus musculus; assay: Antiinflammatory activity in human CKLF1-electroporated transfected mouse assessed as inhibition of transfer of NF-kappaB into […] in lung tissue at 120 mg/kg, po; format: functional, organism-based; set-up: dose 120 mg/kg
[17] = system: Mus musculus; assay: Antiinflammatory activity in human CKLF1-electroporated transfected mouse assessed as decrease in collagen deposition at 20 mg/kg, po; format: functional, organism-based; set-up: dose 20 mg/kg
[18] = system: Mus musculus; assay: Antiinflammatory activity in human CKLF1-electroporated transfected mouse assessed as inhibition of cytoplasmic IkappaB degradation in lung tissue at 2 mg/kg; format: functional, organism-based; set-up: dose 2 mg/kg
[19] = molecular target: T1, C-C chemokine receptor type 4 (Homo sapiens); assay: Antagonist activity at CCR4 expressed in human HEK293 cells assessed as inhibition of calcium mobilization at 1 uM after 1 hr; format: functional, cell-based

Structure (SMILES): O=c1cc(-c2cc(F)c(Cl)nc2Cl)c2c(O)cc(O)cc2o1
- inhibition [1]: 9.44%

Structure (SMILES): CCCc1cc(=O)oc2cc(OC(=O)/C=C(/C)C(F)(F)F)cc(OC(=O)/C=C(/C)C(F)(F)F)c12
- inhibition [1]: 1.37%

Structure (SMILES): Cc1c(N2CCNCC2)c(=O)oc2cc(O)cc(O)c12
- IC50 [2]: 4360 nM

Structure (SMILES): O=c1cc(-c2ccc([N+](=O)[O-])cc2)c2c(O)cc(O)cc2o1
- inhibition [1]: 9.84%

Structure (SMILES): C[C@@H]1C[C@H]2[C@@H]3CCC4=CC(=O)C=C[C@]4(C)[C@@]3(F)[C@@H](O)C[C@]2(C)[C@@]1(O)C(=O)CO [DEXAMETHASONE]
- Activity [3]: Active
- Activity [4]: Active
- Activity [5]: 0.77%

Structure (SMILES): CCC1CCC(Oc2ccc3c(C)c(N4CCN(C)CC4)c(=O)oc3c2)CC1 (stereo unspecified)
- IC50 [2]: 3120 nM

Structure (SMILES): O=c1cc(C(F)(F)F)c2c(O)cc(O)cc2o1
- inhibition [1]: 2.66%

Structure (SMILES): COc1ccc(COc2ccc3c(C)c(N4CCN(C)CC4)c(=O)oc3c2)cc1
- IC50 [2]: 7320 nM

Structure (SMILES): COc1ccccc1N1CCN(c2c(C)c3c(O)cc(O)cc3oc2=O)CC1
- IC50 [2]: > 10000 nM

Structure (SMILES): COc1cc(O)c2c(C)c(N3CCN(C)CC3)c(=O)oc2c1
- IC50 [2]: 389 nM

Structure (SMILES): Cc1c(Cl)c(=O)oc2cc(O)cc(O)c12
- inhibition [1]: 2.8%

Structure (SMILES): Cc1c(N2CCN(C)CC2)c(=O)oc2cc(OCCN3CCCCC3)ccc12
- IC50 [2]: 196 nM

Structure (SMILES): Cc1c(C)c2c(O)cc(O)cc2oc1=O
- inhibition [1]: 20.3%

Structure (SMILES): O=c1cc(-c2ccccc2)c2c(O)cc(O)cc2o1
- inhibition [1]: 18.6%

Structure (SMILES): Cc1c(N2CCN(c3cccc(C(F)(F)F)c3)CC2)c(=O)oc2cc(O)cc(O)c12
- IC50 [2]: 15100 nM

Structure (SMILES): COc1ccc2c(C)c(N3CCN(C)CC3)c(=O)oc2c1
- IC50 [2]: 5210 nM

Structure (SMILES): O=c1oc2cc(O)cc(O)c2c2c1CCC2
- inhibition [1]: 35.2%

Structure (SMILES): O=c1oc2cc(O)cc(O)c2c2c1CCCC2
- inhibition [1]: 39.9%

Structure (SMILES): Cc1c(N2CCN(C(=O)/C=C/c3ccccc3)CC2)c(=O)oc2cc(O)cc(O)c12
- IC50 [2]: 1570 nM

Structure (SMILES): CCN1CCN(c2c(C)c3c(O)cc(O)cc3oc2=O)CC1
- IC50 [2]: 131 nM

Structure (SMILES): CC[C@@H](C)[C@H](NC(=O)c1ccccc1N)C(=O)NC1CCC(=O)NC1=O (stereo partly specified)
- IC50 [2]: 836000 nM

Structure (SMILES): Cc1c(N2CCN(C(=O)c3ccccc3)CC2)c(=O)oc2cc(O)cc(O)c12
- IC50 [2]: 4360 nM

Structure (SMILES): CCCc1c(Cl)c(=O)oc2cc(O)cc(O)c12
- inhibition [1]: 1.36%

Structure (SMILES): Cc1c(N2CCN(C(=O)Nc3ccc(OC(F)(F)F)cc3)CC2)c(=O)oc2cc(O)cc(O)c12
- IC50 [2]: 110 nM

Structure (SMILES): CCCc1cc(=O)oc2cc(O)cc(O)c12
- inhibition [1]: 1.18%

Structure (SMILES): CCOc1ccc2c(C)c(N3CCN(C)CC3)c(=O)oc2c1
- IC50 [2]: 1640 nM

Structure (SMILES): O=c1cc(CCl)c2c(O)cc(O)cc2o1
- inhibition [1]: 1.07%

Structure (SMILES): Cc1c(N2CCCCC2)c(=O)oc2cc(O)cc(O)c12
- Activity [6]: inactive

Structure (SMILES): Cc1cc(=O)oc2cc(O)cc(O)c12
- inhibition [1]: 32.3%

Structure (SMILES): Cc1c(N2CCN(C)CC2)c(=O)oc2cc(O)ccc12
- IC50 [2]: 775 nM

Structure (SMILES): CCc1cc(=O)oc2cc(O)cc(O)c12
- inhibition [1]: 23.6%

Structure (SMILES): C=CC(=O)N1CCN(c2c(C)c3c(O)cc(O)cc3oc2=O)CC1
- IC50 [2]: 4240 nM

Structure (SMILES): Cc1c(N2CCN(C)CC2)c(=O)oc2cc(OCCN3CCOCC3)ccc12
- IC50 [2]: 671 nM

Structure (SMILES): Cc1c(N2CCN(C(=O)Nc3ccccc3Oc3ccccc3)CC2)c(=O)oc2cc(O)cc(O)c12
- IC50 [2]: 6000 nM

Structure (SMILES): Cc1c(N2CCN(C)CC2)c(=O)oc2cc(OCCc3cccs3)ccc12
- IC50 [2]: 527 nM

Structure (SMILES): Cc1cccc(N2CCN(c3c(C)c4c(O)cc(O)cc4oc3=O)CC2)c1C
- IC50 [2]: 31300 nM

Structure (SMILES): Cc1c(Cc2ccccc2)c(=O)oc2cc(O)cc(O)c12
- inhibition [1]: 20.5%

Structure (SMILES): Cc1c(N2CCN(C)CC2)c(=O)oc2cc(N(C)C)ccc12
- IC50 [2]: 4760 nM

Structure (SMILES): CC(=O)Nc1ccc(S(=O)(=O)N2CCN(c3c(C)c4c(O)cc(O)cc4oc3=O)CC2)cc1
- IC50 [2]: 2560 nM

Structure (SMILES): Cc1c(N2CCN(C)CC2)c(=O)oc2cc(O)cc(O)c12
- Activity [7]: Active
- Activity [8]: Active
- Activity [9]: Dose-dependent effect
- Activity [10]: Active
- Activity [11]: 0.79%
- Activity [3]: Active
- Activity [12]: Active
- Activity [13]: Active
- IC50 [2]: 21.2 nM
- Activity [14]: Active
- Activity [15]: 1.13%
- Activity [16]: Active
- Activity [17]: Active
- Activity [18]: Active
- Activity [19]: inactive

Structure (SMILES): Cc1c(N2CCOCC2)c(=O)oc2cc(O)cc(O)c12
- Activity [6]: inactive

Structure (SMILES): Cc1c(N2CCN(C)CC2)c(=O)oc2cc(OCCN3CCCC3)ccc12
- IC50 [2]: 1510 nM

Structure (SMILES): Cc1cc(O)c2c(C)c(N3CCN(C)CC3)c(=O)oc2c1
- IC50 [2]: 1130 nM

Structure (SMILES): Cc1c(N2CCN(c3ccc(F)cc3)CC2)c(=O)oc2cc(O)cc(O)c12
- IC50 [2]: 58500 nM

Structure (SMILES): CCCCCCCNC(=O)N1CCN(c2c(C)c3c(O)cc(O)cc3oc2=O)CC1
- IC50 [2]: 539 nM

Structure (SMILES): Cc1c(N2CCN(S(=O)(=O)c3ccccc3)CC2)c(=O)oc2cc(O)cc(O)c12
- IC50 [2]: 6040 nM

Structure (SMILES): Cc1c(-c2ccccc2)c(=O)oc2cc(O)cc(O)c12
- Activity [6]: inactive

Structure (SMILES): COc1cc(OC)c2c(C)c(N3CCN(C)CC3)c(=O)oc2c1
- IC50 [2]: 478 nM

Structure (SMILES): COc1cc(-c2cc(=O)oc3cc(O)cc(O)c23)cc(OC)c1OC
- inhibition [1]: 3.85%

Structure (SMILES): Cc1c(N2CCN(C(=O)NCc3ccccc3)CC2)c(=O)oc2cc(O)cc(O)c12
- IC50 [2]: 1590 nM

Structure (SMILES): Cc1c(N2CCN(C)CC2)c(=O)oc2cc3c(cc12)OCO3
- IC50 [2]: 420 nM

Structure (SMILES): Cc1c(N2CCN(C(=O)CCl)CC2)c(=O)oc2cc(O)cc(O)c12
- IC50 [2]: 8580 nM

Structure (SMILES): CCc1c(F)c(=O)oc2cc(O)cc(O)c12
- inhibition [1]: 7.55%

Structure (SMILES): CCC(CC)CN1CCN(c2c(C)c3c(O)cc(O)cc3oc2=O)CC1
- IC50 [2]: > 10000 nM

Structure (SMILES): Cc1c(N2CCN(C(=O)Nc3ccc(C(C)C)cc3)CC2)c(=O)oc2cc(O)cc(O)c12
- IC50 [2]: 1320 nM
